Experimental findings from patent US20250092065A1, “2-(INDAZOL-5-YL)-6-(PIPERIDIN-4-YL)-1,7-NAPHTHYRIDINE DERIVATIVES AND RELATED COMPOUNDS AS MODULATORS FOR SPLICING NUCLEIC ACIDS AND FOR THE TREATMENT OF PROLIFERATIVE DISEASES” (REMIX THERAPEUTICS INC., priority 2022, published 2025) are described below.

One may read the AC50 as the midpoint of the concentration-response curve, whichever way the signal moves. What is called IC50 is the concentration that inhibits the measured activity by half.

Structures can show the parent of a compound that is named as a salt. Where two headings read alike, the source gives them in different places.

For the experiment, the system named is HTT mRNA. As to the kind of experiment: RT-qPCR splicing assay, HTT mRNA canonical (CJ) and alternative (AJ) junction. It counts as cell-based, human. The conditions noted are these: Homo sapiens; for AC50: HTT alternative junction mRNA, read-out: HTT AJ (increase in AJ mRNA, AC50). The essentials:
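Both isoforms, CJ and AJ, read by qPCR from crude lysates of treated A673 or K562 cells; 24 h, 37 °C, maximum 10 uM. Normalization: housekeeper ΔCt, then DMSO ΔΔCt.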
On the technique in general: Real-time PCR tracks product formation cycle by cycle.

Setting [1] is: HTT canonical junction mRNA, RT-qPCR, read-out: HTT CJ (decrease in CJ mRNA levels, IC50).
Where [2] appears, read: canonical junction qPCR panel, Table 4, read-out: HTT IC50 (decrease in CJ mRNA levels).

Take `CNC(=O)c1nc(-c2cc3cn(C)nc3cc2O)nc2ccc(N3CCC(N(C)C)CC3)cc12` [Compound 742, 6-[4-(dimethylamino)piperidin-1-yl]-2-(6-hydroxy-2-methylindazol-5-yl)-N-methylquinazoline-4-carboxamide]: under “RT-qPCR”, the AC50 was greater than 10000 nM. The half-inhibitory concentration (IC50) lay within 100 to 1000 nM under setting [1] and 100 to 1000 nM under setting [2].
Take `C[C@@H]1CN(c2ccc3nc(-c4cc5cn(C)nc5c(F)c4O)ncc3c2)C[C@H](C)N1` [Compound 743, 5-{6-[(3R,5S)-3,5-dimethylpiperazin-1-yl]quinazolin-2-yl}-7-fluoro-2-methylindazol-6-ol]: for the setting “RT-qPCR”, the half-maximal activity concentration (AC50) is 1000 to 10000 nM. For the same molecule, the IC50 is, setting by setting: under setting [1], greater than 10000 nM; under setting [2], greater than 10000 nM.
On to `C[C@H]1CN(c2ccc3nc(-c4cc5cn(C)nc5c(F)c4O)ncc3c2)C[C@H](C)N1` [Compound 744, 5-{6-[(3S,5S)-3,5-dimethylpiperazin-1-yl]quinazolin-2-yl}-7-fluoro-2-methylindazol-6-ol], for which the AC50 (RT-qPCR) is less than 100 nM. The IC50 reads like this: under setting [1], less than 100 nM; under setting [2], less than 100 nM.
Regarding `C[C@@H]1CN(c2ccc3nc(-c4cc5cn(C)nc5c(F)c4O)ncc3c2)C[C@@H](C)N1` [Compound 745, 5-{6-[(3R,5R)-3,5-dimethylpiperazin-1-yl]quinazolin-2-yl}-7-fluoro-2-methylindazol-6-ol], under “RT-qPCR”, the half-maximal activity concentration (AC50) was 100 to 1000 nM. Besides, the half-inhibitory concentration (IC50) reads like this: under setting [1], 100 to 1000 nM; under setting [2], 100 to 1000 nM.
For `CN[C@@H]1CCN(c2cc3c(Cl)cc(-c4cc5cn(C)nc5c(C)c4O)nc3cc2C)C1` [Compound 748, 5-{4-chloro-7-methyl-6-[(3R)-3-(methylamino)pyrrolidin-1-yl]quinolin-2-yl}-2,7-dimethylindazol-6-ol], the AC50 (RT-qPCR) is greater than 10000 nM. In addition, the half-inhibitory concentration (IC50) under setting [1] is greater than 10000 nM and the half-inhibitory concentration (IC50) under setting [2] is greater than 10000 nM.
Take `CN[C@H]1CCN(c2cc3c(Cl)cc(-c4cc5cn(C)nc5c(C)c4O)nc3cc2C)C1` [Compound 749, 5-{4-chloro-7-methyl-6-[(3S)-3-(methylamino)pyrrolidin-1-yl]quinolin-2-yl}-2,7-dimethylindazol-6-ol]: for the setting “RT-qPCR”, the AC50 was greater than 10000 nM. Also, the 50% inhibitory concentration (IC50) by setting is: under setting [1], greater than 10000 nM; under setting [2], greater than 10000 nM.
Regarding `Cn1cc2cc(-c3ncc4cc(N5CCC(N6CCC6)CC5)ccc4n3)c(O)c(F)c2n1` [Compound 750, 5-{6-[4-(azetidin-1-yl)piperidin-1-yl]quinazolin-2-yl}-7-fluoro-2-methylindazol-6-ol], the concentration at half-maximal activity (AC50) (RT-qPCR) was 100 to 1000 nM. The IC50 is, setting by setting: under setting [1], 100 to 1000 nM; under setting [2], 100 to 1000 nM.
Regarding `C[C@@H]1CN(c2ccc3nc(-c4cc5cn(C)nc5cc4O)ncc3c2)C[C@H](C)N1` [Compound 751, 5-{6-[(3R,5S)-3,5-dimethylpiperazin-1-yl]quinazolin-2-yl}-2-methylindazol-6-ol hydrochloride], where the note is “RT-qPCR”, the concentration at half-maximal activity (AC50) is greater than 10000 nM. The 50% inhibitory concentration (IC50) runs as follows: under setting [1], greater than 10000 nM; under setting [2], greater than 10000 nM.
With `C[C@H]1CN(c2ccc3nc(-c4cc5cn(C)nc5cc4O)ncc3c2)C[C@H](C)N1` [Compound 752, 5-{6-[(3S,5S)-3,5-dimethylpiperazin-1-yl]quinazolin-2-yl}-2-methylindazol-6-ol], the AC50 (RT-qPCR) lay within 1000 to 10000 nM. Moreover, the IC50 runs as follows: under setting [1], 1000 to 10000 nM; under setting [2], 1000 to 10000 nM.
For `C[C@@H]1CN(c2ccc3nc(-c4cc5cn(C)nc5cc4O)ncc3c2)C[C@@H](C)N1` [Compound 753, 5-{6-[(3R,5R)-3,5-dimethylpiperazin-1-yl]quinazolin-2-yl}-2-methylindazol-6-ol], the AC50 (RT-qPCR) was 1000 to 10000 nM. Further, the half-inhibitory concentration (IC50) lay within 1000 to 10000 nM under setting [1] and 1000 to 10000 nM under setting [2].
On to `CCN(CC)C1CCN(c2ccc3nc(-c4cc5cn(C)nc5c(F)c4O)ncc3c2)CC1` [Compound 756, 5-{6-[4-(diethylamino)piperidin-1-yl]quinazolin-2-yl}-7-fluoro-2-methylindazol-6-ol], for which, under “RT-qPCR”, the AC50 was in the range of 100 to 1000 nM. Further, the half-inhibitory concentration (IC50) runs as follows: under setting [1], 100 to 1000 nM; under setting [2], 100 to 1000 nM.
